Measured values as given in patent publication US20210378193A1, “HAPLOID EMBRYOGENESIS” (STICHTING WAGENINGEN RESEARCH, priority 2013, published 2021).

Key:
[1] = test system: Capsicum annuum microspore cultures; assay: Capsicum annuum microspore culture, embryogenic microspores and embryos per bud; type: cell-based; details: TSA during the first 20 hours
Experimental: Microspore cultures were performed accordingto Kim M, Jang 1-C, Kim J-A, Park E-J, Yoon M, Lee Y (2008) “Embryogenesis and plant regeneration of hot pepper (Capsicum annuum L.) through isolated microspore culture”: Plant Cell Rep 27 (3):425-434. Flower buds containing vacuolate microspores were selected according to Parra-Vega V, Gonzalez-Garcia B, Segui-Simarro J M (2013) “Morphological markers to correlate bud and anther development with microsporogenesis and microgametogenesis in pepper (Capsicum annuum L.)”: Acta Physiol Plant 35 (2):627-633. Except for “Control” and “DMSO,” the microspores were exposed to TSA (diluted in DMSO) during the first 20 hours of culture.
Cultures were performed according to Kim M, Jang 1-C, Kim J-A, Park E-J, Yoon M, Lee Y (2008) “Embryogenesis and plant regeneration of hot pepper (Capsicum annuum L.) through isolated microspore culture”; Plant Cell Rep 27 (3):425-434. Flower buds containing […] microspores were selected according to Parra-Vega V, Gonzalez-Garcia B, Segui-Simarro JM (2013) “Morphological markers to correlate bud and anther development with microsporogenesis and microgametogenesis in pepper (Capsicum annuum L.)”: Acta Physiol Plant 35 (2):627-633. Except for “Control” and “DMSO,” the microspores were exposed to TSA (diluted in DMSO) during the first 20 hours of culture.

[2] = test system: B. napus DH12075 microspore culture; assay: sporophytic cell division in B. napus DH12075 microspore culture (DAPI staining); type: cell-based, Brassica napus
Experimental: (§1) Brassica napus L. DH12075 was used as a donor plant for microspore embryo culture. The B. napus plant growth and microspore isolation procedures were performed as described in Custers, J. B. M. (2003) “Microspore culture in rapeseed (Brassica napus L.)” in Doubled haploid production in crop plants: a manual, M. Maluszynski, K. J. Kasha, B. P. Forster, and I. Szarejko, eds (Dordrecht: Kluwer Academic Publishers), pp. 185-193. Flower buds for microspore culture were grouped by size (measured from the tip of the flower bud to the bottom of the sepal), ranging from 3.0 to 3.5 mm for DH4079 and from 2.6 to 4.0 mm for DH12075. The microspores were isolated and cultured in NLN-13 medium (see Lichter, R. (1982) […]. For induction of embryogenesis, microspores were cultured in the dark at 33° C. for 20 hours and subsequently transferred to 25° C. Non-induced microspore cultures were cultured continuously at 25° C. or 18° C. Trichostatin A (TSA, Sigma-Aldrich) was prepared in DMSO. Freshly isolated microspores were inoculated in a medium containing TSA or the same volume of DMSO as a control and cultured for 20 hours at the temperature indicated for each experiment. After this period, the cultures were centrifuged at 200 g for 3 min, resuspended in fresh NLN-13 medium without TSA, and transferred to 25° C.
The developmental stage and identity of cells in microspore and anther culture were visualized with the nuclear stain 4′, 6-diamidino-2-phenylindole (DAPI, 1.25 μg/ml according to Custers (2003) supra using a Zeiss Axioskop epifluorescence microscope with a filter set no. 02. Approximately two hundred microspores or multicellular clusters were counted for each sample. GFP was imaged using confocal laser scanning microscopy (CLSM; Leica DM5500 Q). The GFP was excited with an argon laser line at 488 nm and detected with a 505-530 nm emission filter. Samples were counterstained with DAPI or propidium iodide (10 mg/ml; Sigma-Aldrich). Propidium iodide and red autofluorescence were excited at 532 nm and detected with a 620-660 nm emission filter. GFP and DAPI were covisualized with CLSM. For CLSM, DAPI was excited at 405 nm and detected with a 440-500 nm emission filter. The optical slices were median filtered with Leica LAS AF software. Arabidopsis anthers were cleared in HCG solution (water: Chloral hydrate: glycerol; 3:8:1) for 10 min, then observed under DIC microscopy with a Nikon OPTIPHOT microscope.
Cultured microspores and pollen of B. napus genotype DH12075 were treated with the HDAC inhibitor TSA. We examined the development of microspore cultures by staining heat-stressed (hereafter referred to as control) and heat-stressed plus TSA-treated immature male gametophytes at different developmental stages with the nuclear dye, DAPI. Initial dosage experiments were used to establish the minimal exposure time (20 h) in relation to the specific phenotypes discussed below.
(§2) The developmental fate of heat-stressed control cultures and cultures exposed to both heat-stress and TSA was followed by examining older cultures in more detail. […] Heat-stressed microspores and pollen were treated with a range of TSA concentrations, and the cultures examined after five and 15 days using DAPI staining to characterize the different multicellular structures that developed.

[3] = test system: Brassica oleracea Gongylodes group (kohlrabi) microspores; assay: embryo production in Brassica oleracea Gongylodes group (kohlrabi) microspore culture; type: cell-based
Excerpt: Microspores of different developmental stages were isolated by a standard method ([…] 1982, Journal of Plant Physiology 105:427-434).

[4] = test system: B. napus microspore culture; assay: embryo yield in B. napus microspore culture; type: cell-based, Brassica napus
Experimental: as §1, §2
Microspores and immature pollen from different bud sizes were cultured in the presence of different concentrations of TSA compared with the equivalent volume of DMSO (control) at three temperatures: A-D=33° C., D-F=25° C., G-H=18° C. For each treatment, the samples are ranked from left to right along the z-axis according to the developmental stage of the microspores and pollen. […] The microspores and pollen were categorized as follows: mid-uninucleate microspore (white bars), late-uninucleate microspore (grey bars), and binucleate pollen (black bars) stages. […] The percentage of cells that divided gametopyhytically or sporophytically after five days of microspore culture at B=33° C., E=25° C., H=18° C. […] Dead microspores and pollen were not counted. […]

CC(/C=C/C(=O)NO)=C\[C@@H](C)C(=O)c1ccc(N(C)C)cc1 [TSA, trichostatin A]
number of embryogenic cells compared to the control ([1]; 10-day-old cultures): enhances
embryo yield (embryos per bud) compared to the control ([1]; 45-day-old cultures): enhances
effect of duration of TSA treatment on proportion of sporophytic divisions ([2]; 0.5 μM TSA, 33° C., treatment longer than 20 hours, counted after five days): did not further enhance or reduce
proportion of the population dividing sporophytically ([2]; heat stress plus 0.5 μM TSA, after two days of culture): up to 80%
sporophytically-divided cells also containing one or more generative-like nuclei ([2]; heat stress plus 0.5 μM TSA, two days of culture): approximately 10%
Type IV (loose callus-like) structures ([2]; heat-stress and TSA, five-day-old cultures, control 0.5%): up to 32%
Type II (compact callus-like) structures ([2]; heat-stress and TSA, five-day-old cultures, control 7%): up to 77%
Type I classical embryogenic structures ([2]; heat-stress, 0.5 μM TSA, five days, control 0.5%): up to 1%
Type I classical embryogenic structures, abundance ([2]; heat-stress, ten times lower concentration of TSA than 0.5 μM): much more abundant
percentage of sporophytic divisions versus control at lower temperature ([2]; microspore cultures at 18 or 25° C.): increased percentage of sporophytic divisions
general embryo production, sum of experiments ([3]; 0.5 μM TSA, not heat-shocked (25° C.), control sum 204): 841
large embryos in a recalcitrant (non-responsive) genotype ([3]; 18 days, not in the control): Large embryos are present
embryogenic clusters in a recalcitrant (non-responsive) genotype ([3]; early time point, not in the control culture): found at an early time point
embryo production ([4]; culture at 25° C. (no heat stress), practically none in controls): Up to 0.2%
development of histodifferentiated embryos ([4]; cultured at 18° C.): did not develop
embryo abundance relative to control cultures ([4]; heat-stressed cultures, 0.05 μM TSA): up to five times more abundant than in control cultures
heart to cotyledon stage embryos ([4]; heat-stressed cultures, 0.5 μM TSA, 15 days, control up to 0.3%): up to 0.05%
